Test results taken from article PMC5494507, “γ‐Secretase inhibitors in cancer clinical trials are pharmacologically and functionally distinct” (EMBO Molecular Medicine, 2017).

Assays:
[1] = tested on: MDA‐MB‐231 and MDA‐MB‐468 mammospheres; experiment: Secondary mammosphere formation / limiting dilution assay and CD44+CD24low flow cytometry; type: cell-based
Protocol: Suppression of breast cancer stem cells is thought to be a key mechanism of action for the anti‐tumor activity of GSIs in breast cancer models and in patient‐derived mammospheres (Takebe et al, 2015). […] Stem‐like cells are enriched in secondary mammospheres, but their number declines after four to five passages (Dontu et al, 2003; Dey et al, 2009). Therefore, we compared the GSIs in a secondary mammosphere formation assay at 1, 5, and 10 μM concentrations (Fig 7A and B for 10 μM and Appendix Fig S4 for 1 and 5 μM). We separately counted large mammospheres (> 500 μm in diameter) and small mammospheres (100–500 μm in diameter).
For limiting dilution assay, we used two distinct TNBC cell lines. MDA‐MB‐231 is molecularly “Mesenchymal”, PTEN wild type. MDA‐MB‐468 (ATCC, Manassas, VA) is molecularly “Basal‐like” and PTEN null. GSI‐treated (1, 5, and 10 μM twice/week, for 1 week) mammospheres were dissociated by trypsinization, and equal numbers of viable cells were re‐plated at clonal density (1,000, 100, and 10 cells) without GSIs. After 7‐day incubation, large mammospheres (> 500 μm) and small mammospheres (100–500 μm) were counted manually using a Nikon Eclipse Microscope. Next, we investigated whether PF‐3084014 selectively affected cancer stem‐like cells (CSCs) using both MDA‐MB‐231 and MDA‐MB‐468 cell lines. Mammospheres were treated with increasing concentration of PF‐3084014 for 1 week, and CSCs (CD44^+CD24^low) (Azzam et al, 2013) were analyzed by flow cytometry using anti‐human PE‐CD44 (Clone G44‐26) and FITC‐CD24 (Clone ML5) (BD Biosciences) antibody.

[2] = tested on: rAPPC100sub and rNOTCH1‐4subs; experiment: Cell-free γ-secretase assay, rAPPC100sub and rNOTCH1-4subs (IP-MS); type: biochemical, human; conditions: 25 nM
Protocol: cDNAs encoding NOTCH1, NOTCH2, NOTCH3, NOTCH4, CD44, and VEGFR1 γ‐secretase substrates were generated by gene synthesis conducted by Genscript (Piscataway, NJ, USA). The general design of the constructs was similar to a recombinant substrate (APP C100) that has been used by our group and others to assay Aβ production in in vitro γ‐secretase assays. All constructs contain an NH2‐terminal amyloid β peptide (Aβ) epitope tag followed by the juxtamembrane region (JMD) of the given substrate and a FLAG tag ([…]) at the COOH‐terminal. A schematic representation of the substrates is provided in Fig 1A, and sequences of the cDNAs and the proteins are provided in Appendix Fig S5. For clarity, these substrates are referred to as recombinant substrates (e.g., Notch1 is rNOTCH1sub). Substrate cDNAs were cloned into pET21 (Novagen, Billerica, MA, USA) for expression in bacterial cells.
pET21 plasmids containing the substrate cDNAs were transformed into BL21 E. coli. cells. Overexpression was induced with 0.5 mM isopropyl β‐D‐1‐thiogalactopyranoside (IPTG). […]
Immunoprecipitation and mass spectrometry of Aβ and Aβ‐like peptides in cell‐free assay or conditioned media were performed as previously described (Ran et al, 2014). […] Samples were analyzed using a Bruker Microflex LRF‐MALDI‐TOF mass spectrometer.

Structure (SMILES) | absolute cell counts of mammospheres ([1]; 5 and 10 μM, both cell lines) | percentage of CD44+CD24low cells ([1]; all concentrations tested, flow cytometry) | total cell number and CSC fraction ([1]; both cell lines, 1 week treatment) | absolute numbers of CD44+CD24low cells ([1]; flow cytometry) | cleavage of the rAPPC100sub and rNOTCH1‐4subs [2]
CCC[C@H](N[C@H]1CCc2cc(F)cc(F)c2C1)C(=O)Nc1cn(C(C)(C)CNCC(C)(C)C)cn1 [PF‐3084014] | significantly more potent than the other compounds | decrease in percentage | decreased the total cell number and the CSC fraction | dose‐dependent decrease | –
CN1C(=O)[C@@H](NC(=O)[C@H](CCC(F)(F)F)[C@H](CCC(F)(F)F)C(N)=O)N=C(c2ccccc2)c2ccccc21 [BMS‐906024] | – | – | – | – | completely blocked cleavage
